Laboratory results published in patent US4363805A, “Aminodesoxy-1.4;3.6-dianhydrohexitol nitrates and pharmaceutical composition” (Firma Willmar Schwabe, priority 1980, dated 1982).

Tests used:
[1] = system: isolated guinea pig hearts; assay: Experiments on Langendorff hearts (coronary flowthrough, inotropism, frequency); conditions: Cavia porcellus, read-out: flowthrough, percentage change with regard to the initial value
Procedure: After reaching the stationary state in the 30th minute, the hearts were each perfused with 50 ml. tyrode solution with a content of test substance of, in each case, 25 μg./ml. Each test substance was tested on 3-6 hearts.
In each case, there was measured the inotropism, the flowthrough and the frequency, whereby the values given in Table I are average values of the percentage changes in comparison with the initial values.

[2] = Acute toxicity, intravenous, mice; assay type: in vivo; conditions: mouse, in vivo; intravenous, within 24 hours; read-out: Evaluated LD50-range
female NMRI-albino mice = assay: Acute toxicity, intravenous, mice; assay type: in vivo; conditions: within 24 hours
narcotised guinea pigs = assay: Blood pressure experiments on guinea pigs, i.v.; assay type: in vivo, guinea pig; conditions: for blood pressure before: before administration
mongrel cats = assay: Inotropic and heart-circulatory effectiveness on narcotised cats, intravenous; assay type: in vivo, cat; conditions: 6 animals; for blood pressure before / dp/dt (inotropism) before / heart frequency before: before administration

SMILES: O=[N+]([O-])O[C@H]1CO[C@H]2[C@@H]1OC[C@@H]2NCCOc1ccccc1 [Example 35, 5-(2-Phenoxyethylamino)-5-desoxy-1.4;3.6-dianhydro-L-iditol 2-nitrate]
- activation at 25 µg/mL [1]: 34%
- LD50 at 24 h [2]: ≥ 100 mg/kg
- Frequency of death (female NMRI-albino mice; 100 mg/kg i.v.): 2/6
- Frequency of death (female NMRI-albino mice; 200 mg/kg i.v.): 3/3

SMILES: C=CCc1ccccc1OCC(O)CN[C@H]1CO[C@H]2[C@@H]1OC[C@@H]2O[N+](=O)[O-] (stereo partly drawn) [Example 49, 5-[2-Hydroxy-3-(2-allylphenoxy)-propylamino]-5-desoxy-1.4;3.6-dianhydro-L-iditol 2-nitrate]
- activation at 25 µg/mL [1]: 191%
- blood pressure after (narcotised guinea pigs; 0.25 mg/kg i.v.): 43.50 ± 3.38 mm.Hg
- blood pressure Δ (narcotised guinea pigs; 0.25 mg/kg i.v.): -2.25 mm.Hg
- blood pressure before (narcotised guinea pigs; 0.25 mg/kg i.v.): 45.75 ± 2.53 mm.Hg
- blood pressure after (narcotised guinea pigs; 1.00 mg/kg i.v.): 30.25 ± 1.70 mm.Hg
- blood pressure Δ (narcotised guinea pigs; 1.00 mg/kg i.v.): -12.75 mm.Hg
- blood pressure after (narcotised guinea pigs; 2.50 mg/kg i.v.): 20.25 ± 1.03 mm.Hg
- blood pressure Δ (narcotised guinea pigs; 2.50 mg/kg i.v.): -22.50 mm.Hg
- blood pressure before (mongrel cats; 0.25 mg/kg i.v.): 116.6 mm.Hg
- dp/dt (inotropism) before (mongrel cats; 0.25 mg/kg i.v.): 7840 mm.Hg/sec
- heart frequency before (mongrel cats; 0.25 mg/kg i.v.): 200.4 min⁻¹
- blood pressure WD (mongrel cats; 0.25 mg/kg i.v.): 2.8 min
- blood pressure after (mongrel cats; 0.25 mg/kg i.v.): 113.6 mm.Hg
- blood pressure Δ (mongrel cats; 0.25 mg/kg i.v.): -3.0 mm.Hg
- dp/dt (inotropism) after (mongrel cats; 0.25 mg/kg i.v.): 7360 mm.Hg/sec
- dp/dt (inotropism) Δ (mongrel cats; 0.25 mg/kg i.v.): -480 mm.Hg/sec
- dp/dt WD (mongrel cats; 0.25 mg/kg i.v.): 3.1 min
- heart frequency after (mongrel cats; 0.25 mg/kg i.v.): 201.2 min⁻¹
- heart frequency Δ (mongrel cats; 0.25 mg/kg i.v.): +0.8 min^-1
- blood pressure WD (mongrel cats; 0.50 mg/kg i.v.): 3.7 min
- blood pressure after (mongrel cats; 0.50 mg/kg i.v.): 110.6 mm.Hg
- blood pressure Δ (mongrel cats; 0.50 mg/kg i.v.): -9.2 mm.Hg
- dp/dt (inotropism) after (mongrel cats; 0.50 mg/kg i.v.): 6540 mm.Hg/sec
- dp/dt (inotropism) Δ (mongrel cats; 0.50 mg/kg i.v.): -1060 mm.Hg/sec
- dp/dt WD (mongrel cats; 0.50 mg/kg i.v.): 14.0 min
- heart frequency after (mongrel cats; 0.50 mg/kg i.v.): 202.0 min⁻¹
- heart frequency Δ (mongrel cats; 0.50 mg/kg i.v.): +2.0 min^-1
- blood pressure WD (mongrel cats; 1.00 mg/kg i.v.): 11.6 min
- blood pressure after (mongrel cats; 1.00 mg/kg i.v.): 105.8 mm.Hg
- blood pressure Δ (mongrel cats; 1.00 mg/kg i.v.): -16.8 mm.Hg
- dp/dt (inotropism) after (mongrel cats; 1.00 mg/kg i.v.): 4680 mm.Hg/sec
- dp/dt (inotropism) Δ (mongrel cats; 1.00 mg/kg i.v.): -2260 mm.Hg/sec
- dp/dt WD (mongrel cats; 1.00 mg/kg i.v.): > 40 min
- heart frequency after (mongrel cats; 1.00 mg/kg i.v.): 188.4 min⁻¹
- heart frequency Δ (mongrel cats; 1.00 mg/kg i.v.): -5.6 min⁻¹
- blood pressure WD (mongrel cats; 2.50 mg/kg i.v.): > 10 min
- blood pressure after (mongrel cats; 2.50 mg/kg i.v.): 86.6 mm.Hg
- blood pressure Δ (mongrel cats; 2.50 mg/kg i.v.): -35.0 mm.Hg
- dp/dt (inotropism) after (mongrel cats; 2.50 mg/kg i.v.): 3780 mm.Hg/sec
- dp/dt (inotropism) Δ (mongrel cats; 2.50 mg/kg i.v.): -2900 mm.Hg/sec
- dp/dt WD (mongrel cats; 2.50 mg/kg i.v.): > 10 min
- heart frequency after (mongrel cats; 2.50 mg/kg i.v.): 170.4 min⁻¹
- heart frequency Δ (mongrel cats; 2.50 mg/kg i.v.): -20.8 min⁻¹

SMILES: O=[N+]([O-])O[C@H]1CO[C@H]2[C@@H]1OC[C@@H]2NCC(O)COc1cccc2ccccc12 (stereo partly drawn) [Example 54, 5-[2-Hydroxy-3-(1-naphthyloxy)-propylamino]-5-desoxy-1.4;3.6-dianhydro-L-iditol 2-nitrate]
- activation at 25 µg/mL [1]: 274%
- blood pressure after (narcotised guinea pigs; 0.25 mg/kg i.v.): 62.25 ± 8.05 mm.Hg
- blood pressure Δ (narcotised guinea pigs; 0.25 mg/kg i.v.): -4.75 mm.Hg
- blood pressure before (narcotised guinea pigs; 0.25 mg/kg i.v.): 67.00 ± 4.51 mm.Hg
- blood pressure after (narcotised guinea pigs; 1.00 mg/kg i.v.): 56.50 ± 4.97 mm.Hg
- blood pressure Δ (narcotised guinea pigs; 1.00 mg/kg i.v.): -10.75 mm.Hg
- blood pressure after (narcotised guinea pigs; 2.50 mg/kg i.v.): 44.75 ± 4.50 mm.Hg
- blood pressure Δ (narcotised guinea pigs; 2.50 mg/kg i.v.): -23.75 mm.Hg
- blood pressure before (mongrel cats; 0.25 mg/kg i.v.): 115.2 mm.Hg
- dp/dt (inotropism) before (mongrel cats; 0.25 mg/kg i.v.): 8783 mm.Hg/sec
- heart frequency before (mongrel cats; 0.25 mg/kg i.v.): 188.7 min⁻¹
- blood pressure WD (mongrel cats; 0.25 mg/kg i.v.): 1.9 min
- blood pressure after (mongrel cats; 0.25 mg/kg i.v.): 103.8 mm.Hg
- blood pressure Δ (mongrel cats; 0.25 mg/kg i.v.): -11.4 mm.Hg
- dp/dt (inotropism) after (mongrel cats; 0.25 mg/kg i.v.): 8150 mm.Hg/sec
- dp/dt (inotropism) Δ (mongrel cats; 0.25 mg/kg i.v.): -633 mm.Hg/sec
- dp/dt WD (mongrel cats; 0.25 mg/kg i.v.): 3.9 min
- heart frequency after (mongrel cats; 0.25 mg/kg i.v.): 187.7 min⁻¹
- heart frequency Δ (mongrel cats; 0.25 mg/kg i.v.): -1.0 min⁻¹
- blood pressure WD (mongrel cats; 0.50 mg/kg i.v.): 3.2 min
- blood pressure after (mongrel cats; 0.50 mg/kg i.v.): 101.8 mm.Hg
- blood pressure Δ (mongrel cats; 0.50 mg/kg i.v.): -15.9 mm.Hg
- dp/dt (inotropism) after (mongrel cats; 0.50 mg/kg i.v.): 6833 mm.Hg/sec
- dp/dt (inotropism) Δ (mongrel cats; 0.50 mg/kg i.v.): -1934 mm.Hg/sec
- dp/dt WD (mongrel cats; 0.50 mg/kg i.v.): 7.6 min
- heart frequency after (mongrel cats; 0.50 mg/kg i.v.): 186.7 min⁻¹
- heart frequency Δ (mongrel cats; 0.50 mg/kg i.v.): -0.7 min⁻¹
- blood pressure WD (mongrel cats; 1.00 mg/kg i.v.): 5.6 min
- blood pressure after (mongrel cats; 1.00 mg/kg i.v.): 91.0 mm.Hg
- blood pressure Δ (mongrel cats; 1.00 mg/kg i.v.): -27.8 mm.Hg
- dp/dt (inotropism) after (mongrel cats; 1.00 mg/kg i.v.): 5050 mm.Hg/sec
- dp/dt (inotropism) Δ (mongrel cats; 1.00 mg/kg i.v.): -3283 mm.Hg/sec
- dp/dt WD (mongrel cats; 1.00 mg/kg i.v.): 15.2 min
- heart frequency after (mongrel cats; 1.00 mg/kg i.v.): 172.0 min⁻¹
- heart frequency Δ (mongrel cats; 1.00 mg/kg i.v.): -12.0 min⁻¹
- blood pressure WD (mongrel cats; 2.50 mg/kg i.v.): 6.4 min
- blood pressure after (mongrel cats; 2.50 mg/kg i.v.): 78.5 mm.Hg
- blood pressure Δ (mongrel cats; 2.50 mg/kg i.v.): -44.8 mm.Hg
- dp/dt (inotropism) after (mongrel cats; 2.50 mg/kg i.v.): 2817 mm.Hg/sec
- dp/dt (inotropism) Δ (mongrel cats; 2.50 mg/kg i.v.): -5183 mm.Hg/sec
- dp/dt WD (mongrel cats; 2.50 mg/kg i.v.): > 10 min
- heart frequency after (mongrel cats; 2.50 mg/kg i.v.): 158.3 min⁻¹
- heart frequency Δ (mongrel cats; 2.50 mg/kg i.v.): -20.0 min⁻¹

SMILES: O=[N+]([O-])O[C@@H]1CO[C@H]2[C@@H]1OC[C@@H]2O [ISMN, 1.4;3.6-dianhydro-D-glucitol 2-nitrate, reference compound]
- activation at 25 µg/mL [1]: 9.11%
- blood pressure Δ (narcotised guinea pigs; 0.25 mg/kg i.v.): -3.70 mm.Hg
- blood pressure Δ (narcotised guinea pigs; 1.00 mg/kg i.v.): -6.30 mm.Hg
- blood pressure Δ (narcotised guinea pigs; 2.50 mg/kg i.v.): -10.90 mm.Hg
